{
  "source": "patent EP0022330B1",
  "about": "“Synergistic antihypertensive compositions” (SMITHKLINE BECKMAN CORPORATION, priority 1979, dated 1981)",
  "type_in_all_cases": "in vivo",
  "key": {"[1]": {"tested_on": "anesthetized normotensive dogs", "test": "renal dopamine-like activity by infusion in anesthetized normotensive dogs", "settings": "for ED15: Canis lupus familiaris, iv, infusion, anesthetized normotensive dogs", "method": "In the test procedure for determining renal dopamine-like activity by infusion in anesthetized normotensive dogs, 6 - chloro - 7,8 - dihydroxy - 1 - (p - hydroxyphenyl) - 2,3,4,5 - tetrahydro - 1 H - 3 - benzazepine has an ED15 of 0.3 µg/kg. The details of the test procedure are presented in the literature references mentioned above. The tri-O-acetyl derivative of this compound has an ED1. of 25 µg/kg, and the tri-O-isobutyryl derivative has an ED15 of 16 µg/kg. Other compounds of Formula I having renal dopaminergic activity can be used by comparing their activity in the anesthetized dog protocol with that of the above specifically named compound in preparing hypotensively effective and non-toxic dosage regimens. For example, referring to compounds of the Formula I in which R is H: […]\nThe renal dopaminergic ED1. values given above for the infused anesthetized dog are useful to assess quantitative and qualitative biological properties of the 1 - hydroxyphenyl - 7,8 - dihydroxy - 2,3,4,5 - tetrahydro - 1 H - 3 - benzazepine compounds of Formula I. These compounds are preferably given by oral administration. They are rapidly absorbed from the gastrointestinal tract, and have a relatively short half life in vivo. Therefore, the renal dopaminergic agent must be matched with conventional dosage regimens of the diuretic agents considering the pharmacokinetic properties of each active component. This may be accomplished by combining the renal dopaminergic agent with a diuretic in standard dosage unit forms for administration from 2-6 times daily. This would be most suitable when the diuretic agent is of a short acting nature and conventionally multiple daily doses are used to give the desired maintenanance level."}, "[2]": {"tested_on": "glucose-infused unanesthetized dog", "test": "renal clearance study in the glucose-infused unanesthetized dog", "settings": "single dose, benzazepine salt alone, glucose-infused dog protocol"}, "[3]": {"tested_on": "phosphate mannitol infused dog", "test": "renal clearance study in the phosphate-mannitol infused dog", "settings": "change from control, triamterene 10 mg. p.o., benzazepine 2.5 mg. p.o.", "from_the_text": "Mannitol itself has some proximal natriuretic effect which tends to screen any synergistic effect of the combination. […] In the parameters presented, the control figures are actual values. Phase II, III and IV are changes from control."}, "[4]": {"tested_on": "glucose-infused unanesthetized dog", "test": "renal clearance study in the glucose-infused unanesthetized dog", "settings": "hydrochlorothiazide 2.5 mg/kg i.v. then 3.0 mg/kg/hr infusion", "method": "In the glucose-infused unanesthetized dog, 6 - chloro - 7,8 - dihydroxy - 1 - (p - hydroxyphenyl) 2,3,4,5 - tetrahydro - 1 H - 3 - benzazepine methyl sulfonate was given at the peak time of natriureses established by a maximally effective dose of hydrochlorothiazide.\nAll dogs were given an oral water load of 3% of body weight of tap water thirty minutes prior to initiation of the experiment. Using a constant infusion pump the dogs were infused intravenously at 3 ml/min. throughout the course of the experiment, with a 5% dextrose solution containing 3.0 mg/kg/hr of hydrochlorothiazide (HCTZ). Glomerular filtration rate was determined by the clearance of creatinine and effective renal plasma flow by the clearance of p-aminohippuric acid (PAH). […] The solution also contained 0.02% ascorbic acid. Suitable plasma levels of creatinine and p-aminohippuric acid were obtained by a twenty minute infusion of this solution to obtain equilibrium prior to starting of the initial urine collection. […] 1.5 ml/kg of a 1% creatinine solution in saline was also injected intravenously fifteen minutes prior to the start of the collection of urine. Replicate urine collections were obtained at ten minute intervals throughout the experiment. The bladder was emptied by an indwelling catheter and complete urine collections were measured by rinsing the bladder with 10 ml of water at the end of each collection interval, followed by an air wash-out. Venous blood samples were drawn from an indwelling catheter at the mid-point of each clearance period.\nPlasma and urine osmolalities were determined by freezing point depression on freshly obtained samples. Urine volume and pH were recorded at the time of collection. Plasma and urine samples were stored frozen after collection, until analyzed. Analysis for sodium and potassium were made using the flame. photometer, and for chloride, creatinine, and p-aminohippuric acid, by colorimeter, using standard methodologies. These analyses were made simultaneously on each sample. Peak intensities were identified electronically, recorded by \"on-line\" teletype, stored and subsequently analyzed mathematically by time-shared computer against appropriate standards. Data were computed from linear least square regression lines and quality control standards were analyzed simultaneously to evaluate system reproducibility and reliability.\nIn the experiments where hydrochlorothiazide alone was given, twelve clearances were obtained. […] In the combination study the benzazepine was given by stomach tube at 5.0 mg/kg (base) after Ca, The compound was solubilized in water with a small amount of sugar syrup to prevent or minimize emesis. Clearances C7-C'2 (treatment) as in the hydrochlorothiazide alone tests, were taken with no wait between C6 and C7. Five dogs were used with both hydrochlorothiazide and with the combination."}, "[5]": {"settings": "individual dog, difference between averages of C1—C6 and C7—C12"}},
  "note": "Values joined by “and” are separate entries in the source; they are usually repeats but may differ in a detail not shown here. Equal values may be shown once. Read-outs that look alike come from different tables or passages of the source. Marks after values point to notes of the source that are not given here.",
  "data": [
    {"compound": "C=CCN1CCc2c(cc(O)c(O)c2Cl)C(c2ccc(O)cc2)C1", "note": "(centres unmarked)", "values": [
      {"measurement": "renal dopaminergic activity", "setting": "[1]; 0.3 ug/kg/min infusion rate", "value": "demonstrated activity"}
    ]},
    {"compound": "CS(=O)(=O)O.Oc1ccc(C2CNCCc3c2cc(O)c(O)c3Cl)cc1", "note": "(centres unmarked) [6 - Chloro - 7,8 - dihydroxy - 1 - (4 - hydroxyphenyl) - 2,3,4,5 - tetrahydro - 1H - 3 - benzazepine methyl sulphonic acid salt]", "values": [
      {"measurement": "diuretic effect", "setting": "[2]", "value": "no diuretic effect"}
    ]},
    {"compound": "Oc1ccc(C2CNCCc3c2cc(O)c(O)c3Cl)cc1", "note": "(centres unmarked) [6 - chloro - 7,8 - dihydroxy - 1 - (p - hydroxyphenyl) - 2,3,4,5 - tetrahydro - 1 H - 3 - benzazepine]", "values": [
      {"measurement": "ED15", "setting": "[1]; read-out: ED15", "value": 0.3, "unit": "µg/kg"},
      {"measurement": "Glomerular Filtration Rate", "setting": "[3]; Phase II", "value": 1},
      {"measurement": "Potassium Execretion", "setting": "[3]; Phase II", "value": "−0.93**"},
      {"measurement": "Glomerular Filtration Rate", "setting": "[3]; Phase III", "value": "−2"},
      {"measurement": "Potassium Execretion", "setting": "[3]; Phase III", "value": "−1.59"},
      {"measurement": "Glomerular Filtration Rate", "setting": "[3]; Phase IV", "value": "−2"},
      {"measurement": "Potassium Execretion", "setting": "[3]; Phase IV", "value": 2.02}
    ]},
    {"compound": "Oc1cccc(C2CNCCc3c2cc(O)c(O)c3Cl)c1", "note": "(centres unmarked) [A, 6 - chloro - 7,8 - dihydroxy - 1 - (3 - hydroxyphenyl) - 2,3,4,5 - tetrahydro - 1 H - 3 - benzazepine]", "values": [
      {"measurement": "ED15", "setting": "[1]; read-out: ED15", "value": 0.35, "unit": "µg/kg"}
    ]},
    {"compound": "Oc1ccc(C2CNCCc3c2cc(O)c(O)c3Br)cc1", "note": "(centres unmarked) [B]", "values": [
      {"measurement": "ED15", "setting": "[1]; read-out: ED15", "value": 5, "unit": "µg/kg"}
    ]},
    {"compound": "Cc1c(O)c(O)cc2c1CCNCC2c1ccc(O)cc1", "note": "(centres unmarked) [C, 6 - methyl - 7,8 - dihydroxy - 1 - (4 - hydroxyphenyl) - 2,3,4,5 - tetrahydro - 1 H - 3 - benzazepine]", "values": [
      {"measurement": "ED15", "setting": "[1]; read-out: ED15", "value": 2.8, "unit": "µg/kg"}
    ]},
    {"compound": "Oc1ccc(C2CNCCc3c(Cl)c(O)c(O)c(Cl)c32)cc1", "note": "(centres unmarked) [D, 6,9 - dichloro - 7,8 - dihydroxy - 1 - (4 - hydroxyphenyl) - 2,3,4,5 - tetrahydro - 1H - 3 - benzazepine]", "values": [
      {"measurement": "ED15", "setting": "[1]; read-out: ED15", "value": 620, "unit": "µg/kg"}
    ]},
    {"compound": "Cc1c(O)c(O)c(Cl)c2c1CCNCC2c1ccc(O)cc1", "note": "(centres unmarked) [E]", "values": [
      {"measurement": "ED15", "setting": "[1]; read-out: ED15", "value": 30, "unit": "µg/kg"}
    ]},
    {"compound": "Oc1ccc(C2CNCCc3c2cc(O)c(O)c3I)cc1", "note": "(centres unmarked) [F]", "values": [
      {"measurement": "ED15", "setting": "[1]; read-out: ED15", "value": 4.2, "unit": "µg/kg"}
    ]},
    {"compound": "COC(=O)c1c(O)c(O)cc2c1CCNCC2c1ccc(O)cc1", "note": "(centres unmarked) [G, 6 - carbomethoxy - 7,8 - dihydroxy - 1 - (4 - hydroxyphenyl) - 2,3,4,5 - tetrahydro - 1H - 3 - benzazepine]", "values": [
      {"measurement": "ED15", "setting": "[1]; read-out: ED15", "value": 2.3, "unit": "µg/kg"}
    ]},
    {"compound": "NS(=O)(=O)c1cc2c(cc1Cl)NCNS2(=O)=O", "note": "[Hydrochlorothiazide, hydrochlorothiazide]", "values": [
      {"measurement": "Filtration Fraction Δ", "setting": "[4]; Average of five dogs", "value": "−.012"},
      {"measurement": "Glomerular Filtration Rate (GFR) Δ % Change", "setting": "[4]; Average of five dogs", "value": "−2.4", "unit": "%"},
      {"measurement": "Ranal Plasma Flow (RPF) Δ % Change", "setting": "[4]; Average of five dogs", "value": "+2.6%"},
      {"measurement": "Δ % Na^+ Excreted", "setting": "[4]; Average of five dogs", "value": "−0.82", "unit": "%"},
      {"measurement": "Filtration Fraction Δ", "setting": "[4]; [5]", "value": "−.01 and 0 and +.01 and −.03 (2×)"},
      {"measurement": "Glomerular Filtration Rate (GFR) Δ % Change", "setting": "[4]; [5]", "value": "−6% and +6% and −7% and 0% and −5%"},
      {"measurement": "Ranal Plasma Flow (RPF) Δ % Change", "setting": "[4]; [5]", "value": "−1% and +6% and −10% and +7% and +11%"},
      {"measurement": "Δ % Na^+ Excreted", "setting": "[4]; [5]", "value": "−1.1% (2×) and −0.8% and −0.5% and −0.6%"}
    ]},
    {"compound": "Nc1nc(N)c2nc(-c3ccccc3)c(N)nc2n1", "note": "[Triamterene, triamterene]", "values": [
      {"measurement": "Glomerular Filtration Rate", "setting": "[3]; Phase II", "value": "−3"},
      {"measurement": "Potassium Execretion", "setting": "[3]; Phase II", "value": "−3.65"},
      {"measurement": "Glomerular Filtration Rate", "setting": "[3]; Phase III", "value": "−15"},
      {"measurement": "Potassium Execretion", "setting": "[3]; Phase III", "value": "−5.44"},
      {"measurement": "Glomerular Filtration Rate", "setting": "[3]; Phase IV", "value": "−15**"},
      {"measurement": "Potassium Execretion", "setting": "[3]; Phase IV", "value": "−5.61"}
    ]},
    {"compound": "CC(=O)Oc1ccc(C2CNCCc3c2cc(OC(C)=O)c(OC(C)=O)c3Cl)cc1", "note": "(centres unmarked) [tri-O-acetyl derivative, 6 - chloro - 7,8 - diacetoxy - 1 - (4 - acetoxyphenyl) 2,3,4,5 - tetrahydro - 1H - 3 - benzazepine]", "values": [
      {"measurement": "ED15", "setting": "[1]; read-out: ED1.", "value": 25, "unit": "µg/kg"}
    ]},
    {"compound": "CC(C)C(=O)Oc1ccc(C2CNCCc3c2cc(OC(=O)C(C)C)c(OC(=O)C(C)C)c3Cl)cc1", "note": "(centres unmarked) [tri-O-isobutyryl derivative]", "values": [
      {"measurement": "ED15", "setting": "[1]; read-out: ED15", "value": 16, "unit": "µg/kg"}
    ]}
  ]
}
